# Assay results from patent publication US4216314A, “N-Aryloxypropyl-N'-dioxopyrimidyl-α,ω-alkylenediamines” (Cassella Farbwerke Mainkur Aktiengesellschaft, priority 1977, dated 1980).
# Columns and labels:
# [1] = biological target: T1, β1 -receptors of the heart (Canis lupus familiaris, UniProt P79148); test: inhibition of isoproterenol effect on dp/dtmax of left ventricle (β1-receptors of the heart) in anaesthetised dogs; format: in vivo, mongrel dogs; conditions: for ED50: dog, cumulative intravenous dose for 50% inhibition of effect of isoproterenol (0.5 gamma/kg i.v.) on dp/dtmax, chloralose/urethane/morphine anaesthesia, read-out: ED50 β1 mg/kg intravenously; for ratio of the doses, ED50 β2 / ED50 β1 (head is drawing 43): number significantly >1 indicates cardioselective action
# T1 construct: from tissue; host or cells: heart (left ventricle) of anaesthetised mongrel dogs, in vivo
# Procedure: (§1) Pharmacological tests for activity towards β1 -receptors and β2 -receptors were carried out on mongrel dogs of both sexes under chloralose/urethane/morphine anaesthesia. The pressure in the left ventricle was recorded by means of a catheter tip manometer (micro-tip pressure transducer, MILLAR Instruments, Houston, Texas). The pressure signal was continuously differentiated by means of an analog computer and recorded (BRUSH Instruments, Cleveland, Ohio). The flow of blood through an arteria femoralis was measured and recorded by means of an electromagnetic flow meter (Messrs. STATHAM, Model M4000). Injection catheters were fastened to a peripheral vein and into a branch of the a. femoralis.
# (§2) Isoproterenol was injected intravenously (0.5 gamma/kg) and intraarterially (0.05 gamma/kg). The effect of the isoproterenol on the dp/dtmax in the case of intravenous administration was considered to be an expression of the stimulation of the β1 -receptors of the heart. The change in the flow of blood through the arteria femoralis in the case of intraarterial injection of isoproterenol was considered to be an expression of the stimulation of the peripheral β2 -receptors (D-DUNLOP and R. G. SHANKS, "Selective Blockade of Adrenoceptive beta-Receptors in the Heart", Br. J. Pharmac. Chemother., 32, 201 to 218, 1968). The percentage inhibition of the effects of isoproterenol with respect to the cumulative doses of the test substance was determined. The cumulative doses of the test substance which leads to 50% inhibition of the isoproterenol effects (=ED50) was determined by means of a modified probit analysis. Substances which inhibit the isoproterenol effects on the dp/dtmax (β1) at a low dose and only decrease the change in the flow of blood through the a. femoralis at higher doses (β2) preferentially act on the β1 -receptors of the heart. The ratio of the doses. [formula] should be as high as possible.
# peripheral β2 -receptors = biological target: T2, peripheral β2 -receptors (Canis lupus familiaris, UniProt P54833); test: inhibition of isoproterenol effect on blood flow through arteria femoralis (peripheral β2-receptors) in anaesthetised dogs; format: in vivo, mongrel dogs; conditions: dog; cumulative intravenous dose for 50% inhibition of effect of isoproterenol (0.05 gamma/kg intraarterially) on blood flow through a. femoralis; chloralose/urethane/morphine anaesthesia; read-out: ED50 β2 mg/kg intraveneously
# T2 construct: from tissue; host or cells: femoral arterial bed of anaesthetised mongrel dogs, in vivo
# Procedure: as §1, §2
# T2 sequence (P54833 whole entry): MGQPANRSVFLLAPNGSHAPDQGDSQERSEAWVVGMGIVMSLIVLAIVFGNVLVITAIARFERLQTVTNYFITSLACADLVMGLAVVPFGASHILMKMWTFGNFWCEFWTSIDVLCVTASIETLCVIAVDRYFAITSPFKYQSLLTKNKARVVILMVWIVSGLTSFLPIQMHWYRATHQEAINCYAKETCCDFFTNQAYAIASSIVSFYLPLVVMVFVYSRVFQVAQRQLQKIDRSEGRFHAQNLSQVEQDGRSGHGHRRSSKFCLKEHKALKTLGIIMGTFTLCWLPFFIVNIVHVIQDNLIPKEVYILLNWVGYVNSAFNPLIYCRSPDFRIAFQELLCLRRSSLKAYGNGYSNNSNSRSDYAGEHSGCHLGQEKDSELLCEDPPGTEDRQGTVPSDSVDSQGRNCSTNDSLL
# T1 sequence (P79148 whole entry): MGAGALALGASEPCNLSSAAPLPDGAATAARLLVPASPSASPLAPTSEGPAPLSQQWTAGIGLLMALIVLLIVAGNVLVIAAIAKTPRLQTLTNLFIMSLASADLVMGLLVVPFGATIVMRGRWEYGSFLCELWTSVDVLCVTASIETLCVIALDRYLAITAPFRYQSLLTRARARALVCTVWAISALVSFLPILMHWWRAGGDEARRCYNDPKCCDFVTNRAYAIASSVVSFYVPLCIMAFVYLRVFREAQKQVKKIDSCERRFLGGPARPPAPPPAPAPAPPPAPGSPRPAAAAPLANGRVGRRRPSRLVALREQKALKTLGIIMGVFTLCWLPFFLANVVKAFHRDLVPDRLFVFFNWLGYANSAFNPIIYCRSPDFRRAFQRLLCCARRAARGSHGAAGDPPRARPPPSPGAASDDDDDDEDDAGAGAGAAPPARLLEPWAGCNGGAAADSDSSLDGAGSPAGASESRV
Compound,ED50 [1] [mg/kg],"ratio of the doses, ED50 β2 / ED50 β1 (head is drawing 43) [1]",ED50 (peripheral β2 -receptors) [mg/kg]
CCCCOc1ccc(OCC(O)CNCCNc2cc(=O)n(C)c(=O)n2C)cc1 (stereo not drawn) [Example 13],0.0096,"> 1,000",> 9.6
Cn1c(NCCNCC(O)COc2ccc(OCCO)cc2)cc(=O)n(C)c1=O (stereo not drawn) [Example 14],0.0291,303,8.83
Cn1c(NCCNCC(O)COc2ccc(OCc3ccccc3)cc2)cc(=O)n(C)c1=O (stereo not drawn) [Example 19],0.0139,322,4.48

# Other lines, results leading:
ED50 [1] [mg/kg],"ratio of the doses, ED50 β2 / ED50 β1 (head is drawing 43) [1]",ED50 (peripheral β2 -receptors) [mg/kg],Compound
0.0157,341,5.36,COc1ccc(OCC(O)CNCCNc2cc(=O)n(C)c(=O)n2C)cc1 (stereo not drawn) [Example 11]
0.0061,"> 1,000",> 7.3,CCCOc1ccc(OCC(O)CNCCNc2cc(=O)n(C)c(=O)n2C)cc1 (stereo not drawn) [Example 12]
